Data reported in patent publication US11439640B2, “Pharmaceutical composition comprising substance inhibiting enzymatic activity of peroxiredoxin 2 as effective ingredient for treatment of colorectal cancer” (EWHA UNIVERSITY-INDUSTRY COLLABORATION FOUNDATION, priority 2017, dated 2022).
Residues, ends and D or L forms follow the SMILES beside them. *: point of attachment. Cbz = O=C(OCc1ccccc1)*

Experiments:
[1] = test system: Axin1-related destruction complex; assay: Co-immunoprecipitation of Axin1-related destruction complex; type: cell-based, human; details: SW480 cells; FIG. 34
Description: (§1) For immunoprecipitation, purified cell lysates (0.5-1 mg of proteins) were removed in advance with 30 μL of protein-A/G Sepharose 4 Fast Flow beads (Amersham Biosciences) for one hour.
(§2) Supernatants (cultures floating on the surface) were incubated with 3 μg of an appropriate antibody overnight, and then, precipitated by mixing with 30 μL of protein-A/G beads at 4° C. for three hours.
(§3) Then, the beads were washed three times with 1 mL of lysis buffer, followed by in vitro PARP analysis or immunoblotting.

SW480 cells = assay: Colony forming assay in SW480 cells; type: cell-based, human; details: APC-mutant CRC cells
HT29 cells = assay: Colony forming assay in HT29 cells; type: cell-based, human; details: APC-mutant CRC cells
recombinant human PrxI = target: T1, recombinant human PrxI (Homo sapiens, UniProt Q06830); assay: Peroxiredoxin (peroxidase) assay, PrxI; type: biochemical
T1 sequence (Q06830 1-199): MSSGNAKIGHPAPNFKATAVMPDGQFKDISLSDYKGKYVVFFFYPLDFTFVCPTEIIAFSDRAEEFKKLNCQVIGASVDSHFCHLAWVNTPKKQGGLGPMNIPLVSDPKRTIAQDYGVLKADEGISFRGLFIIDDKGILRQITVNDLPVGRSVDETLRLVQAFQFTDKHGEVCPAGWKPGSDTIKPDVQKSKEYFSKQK
Description: The peroxidase assay was performed in a reaction mixture (200 μL) containing 250 μM NADPH, 1.5 μM yeast TR, 3 μM yeast Trx, a recombinant human Prx (PrxI (4.6 μM) and PrxII (16.4 μM)), and […] (pH 7.0) containing 1 mM EDTA, and […] H2O2.
The mixture (minus H2O2) was preincubated for 5 minutes in the presence or absence of Compounds 1 to 6 (100 μM), and then, the reaction was initiated by adding H2O2. NADPH oxidation was monitored at 30° C. for 5 minutes as the absorbance decreased near 340 nm using an Agilent UV8453 spectrophotometer (Hewlett Packard. USA). The initial reaction rate was calculated using the linear portion of the curve and indicated as the amount of oxidized NADPH per minute.

RKO cells = assay: Colony forming assay in RKO cells; type: cell-based, human; details: APC wild-type CRC cells
[2] = test system: tumor xenograft derived from HT29; assay: HT29 tumor xenograft in mice (luminescence imaging, tumor weight); type: in vivo, mouse; details: intraperitoneal, 286 μM in DMSO, from 6 days after cell injection, every 3 days; FIGS. 65 and 66
Description: In the case of a tumor xenograft model, the mice were anesthetized by the inhalation of isoflurane gas (N2O:O2/70%:30%) and subcutaneously injected with HT29-luc2 cells (2.5×10^5 cells) suspended in 200 μL of PBS. Compound 1 to Compound 6 (286 μM in DMSO) were intraperitoneal administered starting from 6 days after the cell injection and repeated every 3 days.
Bioluminescent imaging was performed with IVIS Lumina Series III (Perkin Elmer). For each image photographing session, luciferin suspended in PBS (150 mg of luciferin/kg body weight) was administered intraperitoneally according to the manufacturer's protocol.
Up to four animals were maintained in the integral anesthetic manifold equipment and they were imaged 10 minutes after luciferin injection. The IVIS imaging system collects the photographic images of mice and quantitative bioluminescent signals therefrom and then allows them to overlap with each another.

GST-TNKS1 PARP protein = GST-TNKS1 PARP protein (Homo sapiens, UniProt O95271); details: 500 μM H2O2 for 30 minutes; FIG. 49
GST-TNKS1 PARP protein, sequence (O95271 1023-1327): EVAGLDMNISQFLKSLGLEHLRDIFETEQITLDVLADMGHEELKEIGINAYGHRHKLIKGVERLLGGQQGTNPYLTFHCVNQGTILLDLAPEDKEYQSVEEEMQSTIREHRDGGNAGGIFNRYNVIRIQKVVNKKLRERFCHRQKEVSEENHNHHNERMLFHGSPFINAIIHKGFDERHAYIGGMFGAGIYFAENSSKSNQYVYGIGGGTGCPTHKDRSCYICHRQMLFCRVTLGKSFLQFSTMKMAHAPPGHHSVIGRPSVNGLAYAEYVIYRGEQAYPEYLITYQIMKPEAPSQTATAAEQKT
Description: Zinc ions were observed using 4-(2-pyridylazo) resorcinol (PAR) in an aqueous solution.
The GST-TANK1 PARP protein was incubated with 500 μM H2O2 for 30 minutes in 200 μL of 40 mM HEPES (pH 7.0) reaction buffer containing 0.1 mM PAR. The formation of a PAR2-Zn^2+ complex was monitored at 500 nm with a UV/VIS spectrophotometer (Agilent).
The total zinc content of the purified GST-TNKS1 PARP protein used in the assay was determined by adding 0.5 mM p-chloromercuribenzoic acid to a reaction mixture.

TNKS = details: FIG. 40
Description: (§4) Immunocomplex-bound beads were incubated at 25° C. for 30 minutes in 40 μL of assay buffer (50 mM Tris-HCl, pH 8.0, 4 mM MgCl2) containing 4 μCi of γ-^32[P]-NAD^+. The reaction was stopped by adding 2×SDS sample buffer. The sample was boiled and separated using an SDS denaturing gel.
(§5) The gel was dried under vacuum and radiographed on an imaging plate. Radioactivity recorded on the plate was read and quantified by Fujifilm Bio-imaging Analyzer System (BAS)-3000.

[3] = target: recombinant TNKS1 PARP domain (amino acids of 1023-1327) (Homo sapiens, UniProt O95271); details: incubation with H2O2; FIG. 48
recombinant TNKS1 PARP domain (amino acids of 1023-1327), sequence (O95271 1023-1327): as above
Description: as §4, §5

Axin1 = Axin1 immunoprecipitation, PARsylation and ubiquitination blot; type: cell-based, human; details: cells of the control, HT29 and SW480
Description: as §1, §2, §3

Structure (SMILES): O=C1Nc2cc(Br)ccc2/C1=C1/Nc2ccccc2/C1=N\O [BIO]
- phospho-β-catenin in the Axin1-related destruction complex [1]: disappeared

Structure (SMILES): [O-][n+]1c(CBr)c(CBr)[n+]([O-])c2ccccc21 [Compound 6, 2,3-bis(bromomethyl)quinoxaline 1,4-dioxide]
- inhibition of proliferation (colony formation) of SW480 cells (SW480 cells): sufficiently inhibited
- inhibition of proliferation (colony formation) of HT29 cells (HT29 cells): sufficiently inhibited
- effect on initial rate of PrxI activity (in words) (recombinant human PrxI; 100 μM compound): not affected
- inhibition at 100 µM (recombinant human PrxI; 100 μM compound, FIG. 63): ~50%
- initial rate of PrxI activity (recombinant human PrxI; group treated with Conoidin A, 100 μM, control 263.7±45.4): 241.7 ± 21 nmol/min
- inhibition of proliferation (colony formation) of RKO cells (RKO cells): not
- tumor growth compared to the control [2]: significantly delayed

Structure (SMILES): OO [Compound H2O2, hydrogen peroxide]
- TNKS1 PARP proteins that lost zinc ions (GST-TNKS1 PARP protein): ≥ 90%
- TNKS activity (PARP) in HT29 cells (TNKS; HT29 cells): inhibited
- TNKS activity (PARP) in SW480 cells (TNKS; SW480 cells): inhibited
- polyADP-ribosylation activity of TNKS1 PARP domain [3]: fully inactivated

Structure (SMILES): CC(C)C[C@@H](C=O)NC(=O)[C@H](CC(C)C)NC(=O)[C@H](CC(C)C)NC(=O)OCc1ccccc1 [MG132] (Cbz-Leu-Leu-Leu-aldehyde)
- PARsylated and ubiquitinated Axin1 (Axin1): induces the accumulation
